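Where inhibition never reached the appropriate level, the endpoint shown equals the highest concentration tested. Otherwise, values were interpolated linearly from a five-concentration, 48-hour dose response in 96-well plates. Abbreviation: GI50, concentration required for 50% inhibition of growth.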 Calls of active or inactive are those of the source. No stated cut-off is given here; in the data, active = GI50 up to about 1.1 µM and inactive = higher.
Columns and labels:
Test in all cases: inhibition of tumour cell growth, NCI panel, 48 h
ACHN = system: ACHN
CAKI-1 = system: CAKI-1
HCT-116 = system: HCT-116
HCT-15 = system: HCT-15
HT-29 = system: HT-29
K562 = system: K562
MOLT-4 = system: MOLT-4
NCI-H226 = system: NCI-H226
NCI-H460 = system: NCI-H460
NCI-H522 = system: NCI-H522
OVCAR-8 = system: OVCAR-8
RPMI-8226 = system: RPMI-8226
RXF 393 = system: RXF 393
SF-268 = system: SF-268
SK-MEL-28 = system: SK-MEL-28
SN12C = system: SN12C
SR = system: SR
TK-10 = system: TK-10

SMILES | GI50 (ACHN) | GI50 (CAKI-1) | GI50 (HCT-116) | GI50 (HCT-15) [µM] | GI50 (HT-29) | GI50 (K562) | GI50 (MOLT-4) | GI50 (NCI-H226) | GI50 (NCI-H460) | GI50 (NCI-H522) | GI50 (OVCAR-8) | GI50 (RPMI-8226) | GI50 (RXF 393) | GI50 (SF-268) | GI50 (SK-MEL-28) | GI50 (SN12C) | GI50 (SR) | GI50 (TK-10)
c1cnc2c(c1)-n1cccc1C1(CCOCC1)NN2 | > 100 µM (inactive) | > 100 µM (inactive) | > 100 µM (inactive) | > 100 | > 100 µM (inactive) | > 100 µM (inactive) | > 100 µM (inactive) | > 100 µM (inactive) | > 100 µM (inactive) | > 100 µM (inactive) | > 100 µM (inactive) | > 100 µM (inactive) | > 100 µM (inactive) | > 100 µM (inactive) | > 100 µM (inactive) | > 100 µM (inactive) | > 100 µM (inactive) | > 100 µM (inactive)
O=c1n(-c2ccccc2)c(=O)n2n1C1C=CC2C2C(C1)C2(Cl)Cl (stereo not drawn) | > 100 µM (inactive) | > 100 µM (inactive) | > 100 µM (inactive) | > 100 | – | > 100 µM (inactive) | > 100 µM (inactive) | > 100 µM (inactive) | > 100 µM (inactive) | > 100 µM (inactive) | > 100 µM (inactive) | – | > 100 µM (inactive) | > 100 µM (inactive) | – | > 100 µM (inactive) | > 100 µM (inactive) | > 100 µM (inactive)
O=C(/C=C/c1ccccc1)Oc1cccc2cccnc12 | 20.3 µM (inactive) | 32 µM (inactive) | 3.33 µM (inactive) | 6.17 | 7.93 µM (inactive) | 3.85 µM (inactive) | 3.2 µM (inactive) | 26.7 µM (inactive) | 3.62 µM (inactive) | 1.09 µM (active) | 4.02 µM (inactive) | 4.38 µM (inactive) | 21.1 µM (inactive) | 2.23 µM (inactive) | 16.4 µM (inactive) | 3.97 µM (inactive) | 1.57 µM (inactive) | > 84.5 µM (inactive)
CCOC(=O)C(=O)Nc1ccc(Cl)cc1C | > 100 µM (inactive) | > 100 µM (inactive) | > 100 µM (inactive) | > 100 | > 100 µM (inactive) | > 100 µM (inactive) | > 100 µM (inactive) | > 100 µM (inactive) | > 100 µM (inactive) | > 100 µM (inactive) | > 100 µM (inactive) | > 100 µM (inactive) | > 100 µM (inactive) | > 100 µM (inactive) | > 100 µM (inactive) | > 100 µM (inactive) | > 100 µM (inactive) | > 100 µM (inactive)
CC(C)(C)N/N=C(\C(=O)Nc1cccc(Cl)c1)C1C(=O)Nc2ccccc2[S+]1[O-] (stereo not drawn) | > 100 µM (inactive) | > 100 µM (inactive) | > 10 µM (inactive) | > 100 | > 100 µM (inactive) | – | > 100 µM (inactive) | > 100 µM (inactive) | > 100 µM (inactive) | > 100 µM (inactive) | > 100 µM (inactive) | – | > 100 µM (inactive) | > 100 µM (inactive) | > 100 µM (inactive) | > 100 µM (inactive) | > 100 µM (inactive) | > 100 µM (inactive)
C=C(C)CC(C)(c1cc2ccccc2n1C)N1CCOCC1 (stereo not drawn) | 62.2 µM (inactive) | 80.5 µM (inactive) | 60.1 µM (inactive) | 75.7 | > 100 µM (inactive) | – | 40.3 µM (inactive) | 69.8 µM (inactive) | 60.8 µM (inactive) | 10.6 µM (inactive) | 67.1 µM (inactive) | – | 65.5 µM (inactive) | 41.5 µM (inactive) | > 100 µM (inactive) | 93.5 µM (inactive) | 69 µM (inactive) | > 100 µM (inactive)
CC(C)(C)c1cc(C(O)(C(F)(F)F)C(F)(F)F)c2c(c1)C(C(F)(F)F)(C(F)(F)F)OC(C)(C(C)(C)C)N2 (stereo not drawn) | 3.06 µM (inactive) | 3.04 µM (inactive) | 3.42 µM (inactive) | 3.83 | 3.4 µM (inactive) | 2.9 µM (inactive) | 2.54 µM (inactive) | 2.27 µM (inactive) | 2.48 µM (inactive) | 1.82 µM (inactive) | 4.9 µM (inactive) | 2.57 µM (inactive) | 4.43 µM (inactive) | – | 8.28 µM (inactive) | 4.45 µM (inactive) | 2.82 µM (inactive) | 3.27 µM (inactive)
